These results are taken from paper PMC2693028 (ChemMedChem, 2008).

SMILES strings stand for the structures. In brackets after ≈: the same amount, converted by molar mass. Several values for one entry are separate records, joined by “and”; a condition that tells them apart may be missing. Identical values can stand only once. Like-named read-outs stand apart in the source and are kept apart here.

The test system of one test is ΔANR B. anthracis. As to the kind of experiment: microbe, parasite or virus in culture. Particulars: Bacillus anthracis. In kind it is cell-based, Bacillus anthracis.
For test [1], the system named is Sterne strain B. anthracis. As to the kind of experiment: microbe, parasite or virus in culture. The class given is cell-based, Bacillus anthracis. As to conditions: Bacillus anthracis.
For test [2], the system named is Staphylococcus aureus (ATCC strain 29213). As to the kind of experiment: microbe, parasite or virus in culture. The class given is cell-based. Particulars: ATCC29213|MSSA.
For test [3], the system named is methicillin–resistant Staphylococcus aureus (ATCC strain 43300). As to the kind of experiment: microbe, parasite or virus in culture. The class given is cell-based.
In test [4] the test system is Enterococcus fecalis (ATCC strain 29212). As to the kind of experiment: microbe, parasite or virus in culture. The class given is cell-based. As to conditions: Enterococcus, ATCC29212.
The test system of test [5] is vancomycin–resistant Enterococcus (VRE) (ATCC strain 51299). As to the kind of experiment: microbe, parasite or virus in culture. In kind it is cell-based. As to conditions: Enterococcus, ATCC51299|VRE.
Test [6] deals with Listeria monocytogenes (10403S). As to the kind of experiment: microbe, parasite or virus in culture. In kind it is cell-based. Particulars: Listeria monocytogenes.
In test [7] the test system is Pseudomonas aeruginosa (ATCC strain 27853). As to the kind of experiment: microbe, parasite or virus in culture. Particulars: ATCC27853. In kind it is cell-based.
Test [8] relates to Klebsiella pneumoniae (ATCC strain 700603). As to the kind of experiment: microbe, parasite or virus in culture. As to conditions: Klebsiella pneumoniae, ATCC700603. In kind it is cell-based.
In test [9] the test system is Escherchia coli (ATCC strain 25922). As to the kind of experiment: microbe, parasite or virus in culture. In kind it is cell-based. As to conditions: Escherichia coli, ATCC25922.
In test [10] the target is Enoyl reducase (ENR) from Bacillus anthracis (BaENR) (Bacillus anthracis, UniProt A0A6L8PBX8). As to the kind of experiment: biochemical. Particulars: for inhibition at 1 µM: read-out: % inhibition at 1μM.
Sequence of Enoyl reducase (ENR) from Bacillus anthracis (BaENR) (A0A6L8PBX8 1-256): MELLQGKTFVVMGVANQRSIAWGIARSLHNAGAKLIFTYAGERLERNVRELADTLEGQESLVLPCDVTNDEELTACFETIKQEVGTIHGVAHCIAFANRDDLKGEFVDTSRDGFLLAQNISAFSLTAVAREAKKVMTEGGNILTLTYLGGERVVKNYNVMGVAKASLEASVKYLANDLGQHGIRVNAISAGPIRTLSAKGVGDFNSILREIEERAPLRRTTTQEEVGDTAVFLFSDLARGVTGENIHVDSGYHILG
A further test deals with MHS. As to the kind of experiment: cells. Particulars: read-out: EC50 against MHS. In kind it is cell-based.
The test system of another test is HeLa cells. As to the kind of experiment: cells. Particulars: Homo sapiens, read-out: EC50 against HeLa cells.
Where [11] appears, read: Staphylococcus aureus, ATCC43300|MRSA.

`O=C(O)c1cn(C2CC2)c2cc(N3CCNCC3)c(F)cc2c1=O` [Cipro, reference compound]: the MIC came out at 0.1 µg/mL (≈ 0.302 µM) in the test on ΔANR B. anthracis; 0.1 µg/mL (≈ 0.302 µM) in test [1]; 0.4 µg/mL (≈ 1.21 µM) in test [2]; 0.5 ± 0.2 µg/mL (≈ 1.51 µM) in test [3] (setting [11]); 0.7 ± 0.1 µg/mL (≈ 2.11 µM) in test [4]; 0.6 ± 0.2 µg/mL (≈ 1.81 µM) in [5]. Also, the MIC in test [6] is 0.9 ± 0.3 µg/mL (≈ 2.72 µM); in test [7], 0.3 ± 0.1 µg/mL (≈ 0.905 µM); in [8], 0.5 ± 0.1 µg/mL (≈ 1.51 µM); in [9], 0.1 µg/mL (≈ 0.302 µM).

Turning to `O=[N+]([O-])c1ccc(Oc2ccc(Cl)cc2O)c(Cl)c1` [Compound 6, 5-Chloro-2-(2-chloro-4-nitrophenoxy)phenol], the IC50 – broadly, the concentration needed to halve the response being measured – in test [10] (IC50) is 290 nM and 300 nM. Besides, the MBC stood at 3.1 ± 1.1 µg/mL (≈ 10.3 µM) in the test with ΔANR B. anthracis; 3.9 ± 0.8 µg/mL (≈ 13 µM) in [1]; 2.9 ± 1.2 µg/mL (≈ 9.66 µM) in [2]; 0.4 ± 0.1 µg/mL (≈ 1.33 µM) in test [3] (setting [11]); 31.3 ± 6.3 µg/mL (≈ 104 µM) in test [4]; 37.5 ± 12.5 µg/mL (≈ 125 µM) in test [5]. Moreover, the MBC in [6] stood at 14.1 ± 3.9 µg/mL (≈ 47 µM); in test [8], 12.5 µg/mL (≈ 41.7 µM); in [9], 12.5 µg/mL (≈ 41.7 µM). In addition, the MIC in test [1] was 1.9 ± 0.3 µg/mL (≈ 6.33 µM); in test [2] it was 0.1 ± 0.1 µg/mL (≈ 0.333 µM); in test [3], 0.3 ± 0.3 µg/mL (≈ 1 µM); in test [3] (setting [11]) it was 0.3 µg/mL (≈ 1 µM); in test [4] it was 4.4 ± 0.8 µg/mL (≈ 14.7 µM); in [5], 5.7 ± 0.6 µg/mL (≈ 19 µM). The MIC in test [6] is 2.8 ± 0.3 µg/mL (≈ 9.33 µM); in test [7], more than 25 µg/mL; in [8] it was 1.8 ± 0.4 µg/mL (≈ 6 µM); in test [9], 0.3 ± 0.1 µg/mL (≈ 1 µM). In addition, the EC50 (usually the midpoint of the concentration-response curve) worked out at 9.9 µg/mL (≈ 33 µM) with MHS and 29.3 µg/mL (≈ 97.6 µM) with HeLa cells.

The molecule `CCCc1ccc(Oc2ccc([S+](C)[O-])cc2)c(O)c1` (stereo not shown) [Compound 43, 2-(4-Methanesulfinylphenoxy)-5-propylphenol] yielded a 50% inhibitory concentration (IC50) in test [10] (IC50) of 3600 ± 300 nM. In the test with ΔANR B. anthracis, this molecule displayed an MIC of 116 µg/mL (≈ 399 µM).

As for `CCCc1ccc(Oc2ccc(S(C)(=O)=O)cc2)c(O)c1` [Compound 44, 2-(4-Methanesulfonylphenoxy)-5-propylphenol], it took 2200 ± 300 nM to reach half-maximal inhibition in [10] (IC50) (IC50). The molecule also yielded an MIC against ΔANR B. anthracis of 61.3 µg/mL (≈ 200 µM).

For `CCCc1ccc(Oc2cccc(N(C)C)c2)c(O)c1` [Compound 45, 2-(3-Dimethylaminophenoxy)-5-propylphenol], the inhibition (usually how much of the control response was suppressed) at 1 µM in test [10] came to 12.6%. Moreover, the MIC in the test with ΔANR B. anthracis amounted to 13.6 µg/mL (≈ 50.1 µM).

For the molecule `CCCc1ccc(Oc2cccc(C(F)(F)F)c2)c(O)c1` [Compound 46, 5-Propyl-2-(3-trifluoromethylphenoxy)phenol], half-maximal inhibition in [10] (IC50) required 1240 nM. Besides, the MIC in the test on ΔANR B. anthracis worked out at 7.4 µg/mL (≈ 25 µM).

`CCCc1ccc(Oc2cccc(C=CC(=O)OC)c2)c(O)c1` [Compound 48, 3-[3-(2-Hydroxy-4-propylphenoxy)phenyl]acrylic acid methyl ester] yielded a half-maximal inhibitory concentration (IC50) in test [10] (IC50) of more than 6250 nM. The MIC with ΔANR B. anthracis amounted to 2 µg/mL (≈ 6.4 µM).

In [10] (IC50), `CCCc1ccc(Oc2cccc(CCC(=O)OC)c2)c(O)c1` [Compound 49, 3-[3-(2-Hydroxy-4-propylphenoxy)phenyl]propionic acid methyl ester] gave an IC50 of 7500 ± 1900 nM. This molecule registered an MIC in the test with ΔANR B. anthracis of 7.9 µg/mL (≈ 25.1 µM).

For `CCCc1ccc(Oc2cccc(CCC(=O)O)c2)c(O)c1` [Compound 51, 3-[3-(2-Hydroxy-4-propylphenoxy)phenyl]propionic acid], the inhibition at 1 µM in test [10] was 17.6%. Also, the MIC with ΔANR B. anthracis came to 60.1 µg/mL (≈ 200 µM).
